Assay results taken from patent US8481011B2, “Use of polyunsaturated compounds as whitening agents” (Pierre Fabre Dermo-Cosmetique, priority 2005, dated 2013).

Key:
Type in all cases: cell-based
[1] = test system: BDV II murine keratinocytes; assay: MTT cellular respiration toxicity test on BDV II keratinocytes; conditions: for % MTT / IC50: BDV II murine keratinocytes; for % MTT: concentration 10 μM, cell viability; for IC50: toxicity; for toxicity ranking on BDV II keratinocytes: ranking in words, viability according to concentration
Source text: (§1) The objective of these tests is to measure the toxicity of the new retinoids on keratinocyte and melanocyte cells.
(§2) The method used is a cellular respiration test with the MTT (thiazolile blue) in order to assess cells that are still living.
(§3) The MTT test gives a cellular respiration index; this involves a substrate of dehydrogenases in general and dehydrogenase succinate in particular. The MTT, yellow, partially soluble in water, is reduced in a violet compound, insoluble in water, but soluble in organic solvents (DMSO).
(§4) Prepare a 12 mM solution (5 mg/ml) of MTT in water or the culture medium.
(§5) Dilute this solution to 1:10 in the supernatant fluid or suspension of cells (final MTT 1.2 mM or 0.5 mg/ml), then leave to incubate for 3 hours at 37° C.
(§6) Aspirate the supernatant fluid, the dissolve the violet crystals of formazan MTT in DMSO.
(§7) Read the optical density of the solution at 550 nm (dilute beforehand as required).
(§8) Calibration line: MTT formazan 0-200 μM.

B16 murine melanocytes [2] = assay: MTT cellular respiration toxicity test on B16 melanocytes; conditions: for % MTT: concentration 10 μM, cell viability; for IC50: toxicity
Source text: as §1, §2, §3, §4, §5, §6, §7, §8

B16 murine melanocytes [3] = assay: Study of depigmenting activity (melanin dosage); conditions: at infratoxic doses, in words
Procedure: The objective of these tests is to measure the depigmenting activity of new retinoids according to their concentration.
The melanin is dosed according to the method described by S. Besson et al., Dermatology Archives. 133:331-336 (1997)′.
Digestion plug: 100 mM NaCl, to mm-Tri-HCl, 1% SDS, 50 mM EDTA, pH 8.
For 50 ml: 292 mg NaCl, 299 mg tris acid, 73 mg tris base, 931 mg EDTA disodium dehydrate, 500 mg SDS, adjust pH (≈5.5) to 8.0 with concentrated NaOH.
K proteinase 10 mg/ml in the digestion plug.
Prepare tubes containing synthetic melanin at concentrations of between 2.5 and 80 μg/ml in the DMSO.
For the cells, determine the protein concentration beforehand, centrifuge in 2 ml tubes and remove the supernatant.
In 2 ml tubes containing a cell remainder, add 300 μl of digestion buffer and 3 μl of K proteinase.
Incubate for 2 hours at 50° C., then a night at 37° C.
Top up the volume to 1 ml with water, then sound test.
Centrifuge for 10 minutes at 20,000 g, drain off all the supernatant (clear) then dissolve the dry melanin remainder in 500-1000 μl of DMSO.
Measure the absorbency at 375 nm and check the spectrum.

SMILES | % MTT [1] | IC50 [1] | toxicity ranking on BDV II keratinocytes [1] | % MTT (B16 murine melanocytes [2]) | IC50 (B16 murine melanocytes [2]) | depigmenting activity (melanin) (B16 murine melanocytes [3]) | IC50 ([1]; Mus musculus, Keratinocyte) | IC50 (B16 murine melanocytes [2]; Mus musculus, Melanocyte)
COC(=O)/C=C(C)/C=C/C=C(C)/C=C/C1=C(C)C(=O)CCC1(C)C [Example 5, Methylic ester of (2E,4E,6E,8E)-9-[3-(3-oxo)-2,6,6-trimethyl-cyclohex-1-enyl]-3,7-dimethyl-nona-2,4,6,8-tetraenoic acid] | 59% | 15 µM | then examples 5 and 6 | 86% | 60 µM | net depigmenting efficacy promotes |  | 
CC1=C(/C=C/C(C)=C/C=C/C(C)=C/C(=O)O)C(C)(C)CCC1O (centres unmarked) [Example 7, (2E,4E,6E,8E)-9-[3-(3-hydroxy)-2,6,6-trimethyl-cyclohex-1-enyl]-3,7-dimethyl-nona-2,4,6,8-tetraenoic acid] | 86% |  | least toxic | 69% |  |  | > 100 µM | 35 µM
CC1=C(/C=C/C(C)=C/C=C/C(C)=C/C(=O)O)C(C)(C)CCC1=O [Example 405, 4-oxoretinoic acid] | 78% | > 100 µM |  | 76% | > 100 µM |  |  | 
CC1=C(/C=C/C(C)=C/C=C/C(C)=C/C(=O)OC(C)(C)C)C(C)(C)CCC1=O [Example 3, tert-butylic ester of (2E,4E,6E,8E)-3,7-dimethyl-9-(2,6,6-trimethyl-3-oxo-cyclohex-1-enyl)-nona-2,4,6,8-tetraenoic acid] | 85% |  |  | 80% |  | net depigmenting efficacy promotes | 60 µM | 30 µM
CC1=C(/C=C/C(C)=C/C=C/C(C)=C/C(=O)O)C(C)(C)CCC1 [RA, Retinoic acid, reference compound] | 40% |  |  | 50% |  |  | 3 µM | 10 µM
CC(=O)OC/C=C(C)/C=C/C=C(C)/C=C/C1=C(C)C(=O)CCC1(C)C [Example 11, (2E,4E,6E,8E)-9-[3-(3-oxo)-2,6,6-trimethyl-cyclohex-1-enyl]-3,7-dimethyl-nona-2,4,6,8-tetraenyl acetate] | 60% |  |  | 86% |  |  | 30 µM | 70 µM
CC(=O)OC1CCC(C)(C)C(/C=C/C(C)=C/C=C/C(C)=C/C(=O)OC(C)(C)C)=C1C (centres unmarked) [Example 8, tert-butylic ester of (2E,4E,6E,8E)-9-[3-(3-acetoxy)-2,6,6-trimethyl-cyclohex-1-enyl]-3,7-dimethyl-nona-2,4,6,8-tetraenoic acid] | 82% |  | least toxic | 82% |  | net depigmenting efficacy promotes | > 100 µM | 60 µM
CC1=C(/C=C/C(C)=C/C=C/C(C)=C/C(=O)OC(C)(C)C)C(C)(C)CCC1O (centres unmarked) [Example 4, tert-butylic ester of (2E,4E,6E,8E)-9-(3-hydroxy-2,6,6-trimethyl-cyclohex-1-enyl)-3,7-dimethyl-nona-2,4,6,8-tetraenoic acid] | 84% |  |  | 62% |  |  | 70 µM | 20 µM
